Columns and labels:
WT mice [1] = experiment: Streptozotocin-mediated diabetes in WT mice treated with GABA; type: in vivo, mouse
From the text: (§1) FIG. 4: The β-like cell mass can be regenerated following streptozotocin treatment in GABA-treated mice, the neo-generated insulin^+ cells being functional. […] Such a recovery is associated with a clear regeneration of their β-cell mass monitored 5, 10, 25 and 45 days post-streptozotocin administration by immunochemistry. 85 days post-streptozotocin injection, GABA- and STZ-treated WT and non-treated controls were subjected to a glucose tolerance test (GTT) (B).
Induction of streptozotocin-mediated diabetes: To induce hyperglycaemia, STZ (Sigma) was dissolved in 0.1M sodium citrate buffer (pH 4.5), and a single dose was administered intraperitoneally (100 mg/kg) within 10 min of dissolution. Diabetes progression was assessed by the monitoring of blood glucose levels of the mice.
A functional β-cell mass can be regenerated following chemically-induced diabetes in GABA-treated animals: To determine whether neo-formed insulin^+ cells could functionally replace endogenous β-cells, we injected WT animals with a high dose of streptozotocin to obliterate the endogenous β-cell mass.

mice = conditions: streptozotocin-induced diabetes in mice (Soltani et al., 2011; Gomez et al., 2007); cited from earlier work
[2] = Life expectancy, basal glycemia and general health of GABA-treated WT mice
Ngn3 = Ngn3 immunohistochemistry in GABA-treated pancreata; type: in vivo, mouse; conditions: no Ngn3 expression in control animals
Description: Immunohistochemistry: Tissues were fixed in 4% PFA for 30 min at 4° C., embedded in paraffin and 8 μm sections applied to slides. These sections were assayed as described previously [Collombat et al., 2003]. The primary antibodies used were the following: guinea pig polyclonal anti-insulin (1/500-Linco), anti-glucagon (1/500-Milipore), mouse monoclonal anti-glucagon (1/500-Sigma), anti-BrdU (1/40-Roche), anti-E-cadherin (1/200-BD Transduction Lab), rat anti-somatostatin (1/250-Millipore), rabbit anti-Glut2 (1/5000), anti-PC1/3 (1/500-Milipore), anti-Nkx6.1 (1/3000-Novonordisk), anti-Pdx1 (1/1000), anti-NeuroD1 (1/200-Milipore), anti-Ngn3 (1/500-Abgent), anti-β-galactosidase (1/10000-Milipore), chicken anti vimentin (1/5000-Milipore), goat anti-osteopontin (1/200-R&D Systems). The secondary antibodies (1/1000-Molecular Probes) used were: 594- and 488-alexa anti-mouse; 594- and 488-alexa anti-rabbit; 594- and 488-alexa anti-guinea pig; 488-alexa anti-rat; 594- and 488-alexa anti-goat; 594- and 488-alexa anti-chicken. Pictures were processed using ZEISS Axioimager Z1 and LEICA DM 6000 B. For quantification purpose, stained cells were counted manually on every tenth section. […]

[3] = test system: pancreatic islets of WT mice; experiment: Quantification of islets and hormone-expressing cells in GABA-treated WT mice (immunohistochemistry, pixel counting); type: in vivo, mouse; conditions: versus aged-matched controls; for Glucagon+ cell count / Somatostatin+ cell count / Insulin+ cell count: pixel counting; for Insulin+ cell count / Islet count / Islet size: mean ± SEM; for Islet count / Islet size: treatment age 2.6 m
Description: (§2) Immunohistochemistry: Tissues were fixed in 4% PFA for 30 min at 4° C., embedded in paraffin and 8 μm sections applied to slides. These sections were assayed as described previously [Collombat et al., 2003]. The primary antibodies used were the following: guinea pig polyclonal anti-insulin (1/500-Linco), anti-glucagon (1/500-Milipore), mouse monoclonal anti-glucagon (1/500-Sigma), anti-BrdU (1/40-Roche), anti-E-cadherin (1/200-BD Transduction Lab), rat anti-somatostatin (1/250-Millipore), rabbit anti-Glut2 (1/5000), anti-PC1/3 (1/500-Milipore), anti-Nkx6.1 (1/3000-Novonordisk), anti-Pdx1 (1/1000), anti-NeuroD1 (1/200-Milipore), anti-Ngn3 (1/500-Abgent), anti-β-galactosidase (1/10000-Milipore), chicken anti vimentin (1/5000-Milipore), goat anti-osteopontin (1/200-R&D Systems). The secondary antibodies (1/1000-Molecular Probes) used were: 594- and 488-alexa anti-mouse; 594- and 488-alexa anti-rabbit; 594- and 488-alexa anti-guinea pig; 488-alexa anti-rat; 594- and 488-alexa anti-goat; 594- and 488-alexa anti-chicken. Pictures were processed using ZEISS Axioimager Z1 and LEICA DM 6000 B. For quantification purpose, stained cells were counted manually on every tenth section.
Cell counts: Quantitative analyses were performed by the counting of colored pixels on (immuno-) stained sections of pancreas using the Photoshop software. Specifically, every 10th section was processed using the same settings for all animals and genotypes.

NOD mice = NOD mice (Soltani et al., 2011; Tian et al., 2011); cited from earlier work
WT mice [4] = experiment: Glucose tolerance test in GABA- and STZ-treated WT mice; type: in vivo, mouse; conditions: surviving GABA-treated mice, 85 days post-streptozotocin, versus controls not treated with GABA or streptozotocin
From the text: as §1

[5] = test system: glucagon-expressing cells; experiment: β-galactosidase lineage tracing in Glu-Cre::Rosa26-lox-β-gal mice treated with streptozotocin and GABA; type: in vivo, mouse; conditions: isolated 40 days post-streptozotocin injection, daily GABA
Description: β-galactosidase-based lineage-tracing experiments: Pancreatic tissues were isolated and fixed for 30 min at 4° C. in a solution containing 1% formaldehyde, 0.2% glutaraldehyde, 0.02% NP40. The tissues were dehydrated in 25% sucrose overnight at 4° C. Prior to sectioning, tissues were embedded in freezing medium. For β-galactosidase activity assessment, the tissues were washed in PBS and then incubated overnight in staining solution (500 mM K3Fe(CN)6, 250 mM K4Fe(CN)6, 0.5M MgCl2, 40 mg/ml X-gal in DMF).
Several examples, from unrelated islets, of cells co-expressing insulin with glucagon were noted. […] To validate this hypothesis, we used Glu-Cre::Rosa26-lox-β-gal mice. […] It is important to note that such double-positive cells (in lesser proportion) are also observed in GABA-treated Glu-Cre::Rosa26-lox-β-gal animals not subjected to streptozotocin administration.

[6] = test system: pancreatic cells of WT mice; experiment: BrdU cell proliferation in GABA-treated WT mice; type: in vivo, mouse
From the text: Thus, to gain further insight into the mechanisms underlying these processes, we administered the thymidine analogue 5-bromo-2′-deoxyuridine (BrdU) to detect actively replicating cells. […] In addition, glucagon^+ and somatostatin^+ cells were not uniformly distributed within the islet mantle but rather found clustered at a pole of the islet, adjacent to neighboring ducts, unlike in controls where the distribution of the non-β-cells were found scattered in the mantle of the islets.

insulin+ cells = experiment: Endocrine cell marker expression of insulin+ cells in GABA-treated pancreata (immunochemistry); type: in vivo, mouse; conditions: GABA-treated islets versus non-treated controls; Pdx1, Nkx6.1, NeuroD1, Glut 2, PC1/3, Pax6
Description: as §2
To ascertain the identity of the insulin^+ cells in GABA-treated pancreata, we assayed the expression of several endocrine cell marker genes by immunochemistry compared to non-treated controls. […]

[7] = test system: Arx mRNA in α-TC1-6 cells; experiment: Relative Arx mRNA expression in α-TC1-6 cells treated with GABA; type: cell-based; conditions: α-TC1-6 cell line, increasing GABA concentrations, different periods of time, versus non-treated cells
Description: Relative Arx mRNA expression was measured in the different conditions.
RNA Analysis: RNA was isolated (RNEASY® (RNA isolation kit), Qiagen) and cDNA synthesis ([…]® (cDNA synthesis kit) choice system, Invitrogen) was performed according to the manufacturer's instructions. Quantitative RT-PCR was carried out using validated primers (Qiagen) and the […]® SYBR Green RT-PCR Kit (Qiagen) following manufacturer's instructions. PCR reactions and detection were performed on a […]® ep realplex cycler using GAPDH and HPRT1 as internal controls for normalization purposes.

For NCCCC(=O)O [GABA, gamma-amino butyric acid], the “Regeneration of insulin+ cells after β-cell loss” value (WT mice [1]; GABA-treated WT animals after streptozotocin, immunohistochemistry at different time points) was “progressively regenerated”, the “Glycemia course after streptozotocin” value (WT mice [1]; WT mice, high dose STZ, GABA started at approximately 300 mg/dl, water controls died from extreme hyperglycemia) was “steady recovery” and the “Sensitivity to another round of streptozotocin” value (WT mice [1]; surviving GABA-treated mice, data not shown) was “not sensitive to STZ”. The Blood glucose levels (mice) was “decrease blood glucose levels”, the “Viability, health and fertility of treated animals” value ([2]; GABA-treated WT mice) was “viable, healthy and fertile” and the Life expectancy ([2]; WT mice, GABA treatment duration 1 month, treatment age 2.6 m) was “normal”. The Life expectancy ([2]; WT mice, GABA treatment duration 2 months, treatment age 2.6 m) was “normal”, the Life expectancy ([2]; WT mice, GABA treatment duration 3 months, treatment age 2.6 m) was “normal” and the Basal glycemia ([2]; WT mice, GABA treatment duration 3 months, treatment age 2.6 m, monitored weekly) was 142. The Ngn3 expression (Ngn3) was “reactivation of Ngn3 in the ductal environment”, the “Glucagon+ cell count” value ([3]; GABA 1 month) was “x 0.97” and the “Somatostatin+ cell count” value ([3]; GABA 1 month) was “x 1.43”. The “Insulin+ cell count” value ([3]; GABA 1 month) was “x 1.04 ± 0.15”, the Islet count ([3]; GABA 1 month) was “x 2.19 ± 0.04” and the Islet size ([3]; GABA 1 month) was “x 1.04 ± 0.15”. For the same compound, the “Glucagon+ cell count” value ([3]; GABA 2 months) was “x 1.91”, the “Somatostatin+ cell count” value ([3]; GABA 2 months) was “x 2.39” and the “Insulin+ cell count” value ([3]; GABA 2 months) was “x 2.15 ± 0.22”. For the same compound, the Islet count ([3]; GABA 2 months) was “x 1.86 ± 0.05”, the Islet size ([3]; GABA 2 months) was “x 2.15 ± 0.22” and the “Glucagon+ cell count” value ([3]; GABA 3 months) was “x 3.02”. The “Somatostatin+ cell count” value ([3]; GABA 3 months) was “x 2.84”, the “Insulin+ cell count” value ([3]; GABA 3 months) was “x 3.49 ± 0.11” and the Islet count ([3]; GABA 3 months) was “x 1.80 ± 0.03”. For the same compound, the Islet size ([3]; GABA 3 months) was “x 3.49 ± 0.11”, the Diabetes reversal (NOD mice) was “reverse diabetes” and the “Response to glucose challenge” value (WT mice [4]) was “improved response with a lower raise in glycemia and a faster return to euglycemia”. For the same compound, the “Insulin and β-galactosidase co-labelling (conversion of glucagon-expressing cells)” value [5] was “a majority of cells positive for insulin and β-galactosidase”, the “Location of BrdU+ proliferating cells” value ([6]; GABA-treated WT pancreata, BrdU for 10 days) was “predominantly located in the ductal lining and in the ductal epithelium” and the β-cell proliferation ([6]; GABA-treated mice, relative to the size of the islets, data not shown) was “lack of a significant increase in β-cell proliferation”. For the same compound, the “Expression of β-cell markers in insulin-expressing cells” value (insulin+ cells) was “uniformly expressed the bona fide β-cell markers” and the “Arx mRNA expression” value [7] was “decrease in Arx mRNA expression”.

— US9708608B2, “Methods for producing a population of pancreatic beta-cells” (priority 2012, dated 2017)
